For orientation: solubility means the dissolved amount per volume that the medium holds.

Here are results for two compounds from patent US12280048B2, “Amorphous solid dispersions” (priority 2016, dated 2025).

The subject of one series is muscarinic receptors. Particulars: cited from earlier work.
Series [1] is described as follows: chemical stability of ITI-007 by HPLC over the seven-day study. The format is physicochemical. Particulars: 7 days at 40° C./75% RH, normalized to content before the study.
Series [2] deals with H1 histaminergic receptors (Homo sapiens, UniProt P35367). Particulars: cited from earlier work.
H1 histaminergic receptors, sequence (P35367 whole entry): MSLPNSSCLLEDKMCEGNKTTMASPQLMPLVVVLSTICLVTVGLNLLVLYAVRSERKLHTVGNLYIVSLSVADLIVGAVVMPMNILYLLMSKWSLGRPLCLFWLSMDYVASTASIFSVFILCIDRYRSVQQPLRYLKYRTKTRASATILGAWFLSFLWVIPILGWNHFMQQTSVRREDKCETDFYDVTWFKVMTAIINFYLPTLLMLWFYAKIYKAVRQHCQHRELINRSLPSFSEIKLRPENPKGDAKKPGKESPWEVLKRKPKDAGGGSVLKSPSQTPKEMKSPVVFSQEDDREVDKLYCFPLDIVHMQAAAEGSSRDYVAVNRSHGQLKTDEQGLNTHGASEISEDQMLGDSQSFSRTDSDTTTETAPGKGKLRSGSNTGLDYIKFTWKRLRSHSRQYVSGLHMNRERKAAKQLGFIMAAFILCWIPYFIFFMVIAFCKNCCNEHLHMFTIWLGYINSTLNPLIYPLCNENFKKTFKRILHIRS
A short description of series [3]: preliminary screen of dispersions by XRPD and appearance. The format is physicochemical. Particulars: XRPD, as generated by lyophilization; ITI-007 free base/excipient.
Procedure: X-ray powder diffraction (XRPD): The X-ray powder diffraction studies are performed using a PANalytical X'Pert PRO MPD diffractometer using an incident beam of Cu radiation produced using an Optix long, fine-focus source. An elliptically graded multilayer mirror is used to focus Cu Kα X-ray radiation through the specimen and onto the detector. Prior to analysis, a silicon specimen is analyzed to verify the observed position of the Si (111) peak (consistent with the NIST-certified position, NIST SM 640e). A specimen of the sample is sandwiched between 3-micron thick films and analyzed in transmission geometry. A beam-stop, short antiscatter extension, and antiscatter knife edge is used to minimize the background generated by the air. Soller slits for the incident and diffracted beams are used to minimize broadening from axial divergence. Diffraction patterns are collected using a scanning position-sensitive detector (X'Celerator) located 240 mm from the specimen.
A short description of series [4]: solubility of ITI-007 free base in solvents. The format is physicochemical.
A further series concerns the target T1, 5-HT2C receptors (Homo sapiens, UniProt P28335).
T1 sequence (P28335 33-458): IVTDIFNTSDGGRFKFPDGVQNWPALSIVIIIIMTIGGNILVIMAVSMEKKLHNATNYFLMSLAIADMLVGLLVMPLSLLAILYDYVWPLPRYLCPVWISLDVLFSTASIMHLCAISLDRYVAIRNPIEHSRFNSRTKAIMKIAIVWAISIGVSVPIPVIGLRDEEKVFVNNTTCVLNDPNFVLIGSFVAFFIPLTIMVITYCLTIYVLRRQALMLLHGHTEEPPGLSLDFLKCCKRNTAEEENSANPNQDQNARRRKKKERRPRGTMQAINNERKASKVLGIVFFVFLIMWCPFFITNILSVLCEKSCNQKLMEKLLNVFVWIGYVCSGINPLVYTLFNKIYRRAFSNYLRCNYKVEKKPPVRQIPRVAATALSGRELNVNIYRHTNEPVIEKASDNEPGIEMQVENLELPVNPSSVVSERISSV
Particulars: cited from earlier work.

Series [5] can be described thus: mDSC glass transition of dispersions. The format is physicochemical. Particulars: single glass transition above 75° C., Yes/No.
The conditions of series [6]: cited from earlier work.
Setting [7] is: salt of U.S. Pat. No. 7,183,282.

≈ marks a conversion by molar mass, not a printed value.

For `CN1CCN2c3c(cccc31)[C@@H]1CN(CCCC(=O)c3ccc(F)cc3)CC[C@@H]12` [ITI-007, 1-(4-fluoro-phenyl)-4-((6bR,10aS)-3-methyl-2,3,6b,9,10,10a-hexahydro-1H,7H-pyrido[3′,4′:4,5]pyrrolo[1,2,3-de]quinoxalin-8-yl)-butan-1-one], the binding entry (in the series with muscarinic receptors; in series [2]; on 5-HT2C receptors) was “negligible binding” throughout. Moreover, the “% ITI-007 change by HPLC” value in series [1] is on record as −5.97%. In series [3], the “X-ray Amorphous Solids?” value is “No”. The solubility in series [4] (2,2,2-trifluoroethanol (TFE), organic solvent or mixture) is above 50 mg/mL; in series [4] (acetone, organic solvent or mixture) it was above 50 mg/mL; in series [4] (dioxane, organic solvent or mixture), above 50 mg/mL; in series [4] (ethanol, organic solvent or mixture) it was above 50 mg/mL; in series [4] (methanol, organic solvent or mixture), above 50 mg/mL; in series [4] (tert-butanol/water mixtures, aqueous with cosolvent or surfactant or cyclodextrin), 5 to 50 mg/mL (≈ 12.7 to 127 mM). For the same compound, the stability in solution result in series [4] (solutions in TFE) is given as “rapidly discolor due to decomposition of the active”. Also, the “Tg > 75° C.” value in series [5] is reported as “No”. The solubility in water entry in series [6] (free base form) was “poor solubility in water”.
For `CN1CCN2c3c(cccc31)C1CN(CCCC(=O)c3ccc(F)cc3)CCC12.Cl` (stereo not shown) [hydrochloride salt form of ITI-007], in series [6] (setting [7]), the hygroscopicity entry is reported as “hygroscopic” and the stability result is on record as “poor stability”.
